Target: T1, human PF4 (Homo sapiens, UniProt P02776)
T1 construct: PF4 is a 70 amino acid, lysine-rich 7.8 kDa platelet-specific protein; made in house; host or cells: Escherichia coli BL21DE3 pLysS (pT7-7) and/or Drosophila S2 cells
T1 sequence (P02776 32-101): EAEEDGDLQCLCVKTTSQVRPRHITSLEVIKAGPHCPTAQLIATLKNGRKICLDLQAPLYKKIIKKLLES
Experiment: Inhibition of PF4 tetramer formation (BS3 cross-linking, SDS-PAGE)
Format: biochemical
Settings: for inhibition at 1 µM: 1 μM inhibitor; for inhibition at 1 µM / inhibition at 3 µM / inhibition at 5 µM / inhibition at 10 µM: read-out: % inhibition of PF4 tetramer formation at single concentration of inhibitor; for inhibition at 3 µM: 3 μM inhibitor (column A); for inhibition at 5 µM: 5 μM inhibitor; for inhibition at 10 µM: 10 μM inhibitor (column A); for IC50: read-out: IC50 of PF4 tetramer formation inhibition
Method in brief: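 Monomer, dimer, trimer and tetramer fractions were quantified by densitometry after reducing 12% SDS-PAGE of BS3-cross-linked (0.2 mM, 30 min, room temperature) PF4. Before cross-linking, 10 μg/ml E. coli-expressed human WT PF4 in PBS was exposed to compound for 15 min at 37° C or 60 min at room temperature; controls lacked compound.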

Compound	inhibition at 1 µM [%]	inhibition at 3 µM [%]	inhibition at 5 µM [%]	inhibition at 10 µM [%]	IC50 [µM]
CC(=O)C1C(=O)c2ccc(N(C)S(=O)(=O)c3ccc4c(c3)C(=O)C(C(C)=O)C4=O)cc2C1=O (stereo not shown) [Example 314, -acetyl-N-(2-acetyl-1,3-dioxo-2,3-dihydro-1H-inden-5-yl)-N-methyl-1,3-dioxo-2,3-dihydro-1H-indene-5-sulfonamide]	9	28	–	–	–
Cc1ccc(NC(=O)C2C(=O)c3ccc(C(=O)c4ccc5c(c4)C(=O)C(C(=O)Nc4ccc(C)cc4)C5=O)cc3C2=O)cc1 (stereo not shown) [Example 91, N-(4-methylphenyl)-5-{2-[(4-methylphenyl)carbamoyl]-1,3-dioxo-2,3-dihydro-1H-indene-5-carbonyl}-1,3-dioxo-2,3-dihydro-1H-indene-2-carboxamide]	–	–	20	35	–
O=C(NC1CCC1)C1C(=O)c2ccc(S(=O)(=O)c3ccc4c(c3)C(=O)C(C(=O)NC3CCC3)C4=O)cc2C1=O (stereo not shown) [Example 292, N-cyclobutyl-5-{[2-(cyclobutylcarbamoyl)-1,3-dioxo-2,3-dihydro-1H-inden-5-yl]sulfonyl}-1,3-dioxo-2,3-dihydro-1H-indene-2-carboxamide]	47	100	–	–	1.26
C[C@H](NC(=O)OC(C)(C)C)C(=O)C1C(=O)c2ccc(S(=O)(=O)c3ccc4c(c3)C(=O)C(C(=O)[C@H](C)NC(=O)OC(C)(C)C)C4=O)cc2C1=O (stereo partly drawn) [Example 180, tert-butyl N-[(2S)-1-[5-({2-[(2S)-2-{[(tert-butoxy)carbonyl]amino}propanoyl]-1,3-dioxo-2,3-dihydro-1H-inden-5-yl}sulfonyl)-1,3-dioxo-2,3-dihydro-1H-inden-2-yl]-1-oxopropan-2-yl]carbamate]	–	–	73	90	~6
O=C(NC1CCS(=O)(=O)C1)C1C(=O)c2ccc(Oc3ccc4c(c3)C(=O)C(C(=O)NC3CCS(=O)(=O)C3)C4=O)cc2C1=O (stereo not shown) [Example 366, N-(1,1-dioxo-1λ^6-thiolan-3-yl)-5-({2-[(1,1-dioxo-1λ^6-thiolan-3-yl)carbamoyl]-1,3-dioxo-2,3-dihydro-1H-inden-5-yl}oxy)-1,3-dioxo-2,3-dihydro-1H-indene-2-carboxamide]	41	60	–	–	0.55
COCC(=O)C1C(=O)c2ccc(S(=O)(=O)c3ccc4c(c3)C(=O)C(C(=O)COC)C4=O)cc2C1=O (stereo not shown) [Example 377, 2-(2-methoxyacetyl)-5-{[2-(2-methoxyacetyl)-1,3-dioxo-2,3-dihydro-1H-inden-5-yl]sulfonyl}-2,3-dihydro-1H-indene-1,3-dione]	26	41	–	–	–
O=C(NCC1CCS(=O)(=O)C1)C1C(=O)c2ccc(Oc3ccc4c(c3)C(=O)C(C(=O)NCC3CCS(=O)(=O)C3)C4=O)cc2C1=O (stereo not shown) [Example 367, N-[(1,1-dioxo-1λ^6-thiolan-3-yl)methyl]-5-[(2-{[(1,1-dioxo-1λ^6-thiolan-3-yl)methyl]carbamoyl}-1,3-dioxo-2,3-dihydro-1H-inden-5-yl)oxy]-1,3-dioxo-2,3-dihydro-1H-indene-2-carboxamide]	30	77	–	–	–
O=C(O)CNC(=O)C1C(=O)c2ccc(C(=O)c3ccc4c(c3)C(=O)C(C(=O)NCC(=O)O)C4=O)cc2C1=O (stereo not shown) [Example 309, 2-[(5-{2-[(carboxymethyl)carbamoyl]-1,3-dioxo-2,3-dihydro-1H-indene-5-carbonyl}-1,3-dioxo-2,3-dihydro-1H-inden-2-yl)formamido]acetic acid]	20	32	–	–	–
C/C(O)=C1\C(=O)c2ccc(C#Cc3ccc4c(c3)C(=O)/C(=C(/C)O)C4=O)cc2C1=O [Example 196]	–	–	88	96	5.3

— patent US20250281424A1 (New York Blood Center, Inc, priority 2020, published 2025)
